Reference: ChEMBL document CHEMBL1201862, “PubChem BioAssay data set” (2004)
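Briefly, cells in 96-well plates were exposed to five compound concentrations for 48 h, and endpoints were estimated by linear interpolation. The concentration for 50% growth inhibition is given as GI50.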 Activity calls are given as the source filed them. Rule as the data show it: active = GI50 up to about 1.1 µM and inactive = higher.

What was measured:
Assay in all cases: NCI-60 cell line screen, 48 h
[1] = system: SF-539
[2] = system: T47D
[3] = system: MDA-MB-231
[4] = system: NCI-H226
[5] = system: Malme-3M
[6] = system: RXF 393
[7] = system: NCI-H460
[8] = system: MDA-MB-435
[9] = system: SK-MEL-28
[10] = system: U-251
[11] = system: HCT-116
[12] = system: A498
[13] = system: UO-31
[14] = system: K562
[15] = system: COLO 205
[16] = system: KM-20L2
[17] = system: Hs-578T
[18] = system: NCI-H23
[19] = system: MOLT-4
[20] = system: LOX IMVI
[21] = system: SNB-75
[22] = system: DU-145
[23] = system: KM12
[24] = system: HOP-92
[25] = system: M14
[26] = system: DLD-1
[27] = system: TK-10
[28] = system: OVCAR-8
[29] = system: HOP-62
[30] = system: EKVX
[31] = system: OVCAR-4
[32] = system: BT-549
[33] = system: HL-60
[34] = system: PC-3
[35] = system: CAKI-1
[36] = system: HCC 2998
[37] = system: OVCAR-5
[38] = system: LXFL 529
[39] = system: SNB-19
[40] = system: NCI-H522
[41] = system: RPMI-8226
[42] = system: HT-29
[43] = system: UACC-257
[44] = system: SN12C
[45] = system: OVCAR-3
[46] = system: DMS-273
[47] = system: A549
[48] = system: SR
[49] = system: SF-268
[50] = system: M19-MEL
[51] = system: SK-OV-3
[52] = system: XF498
[53] = system: RXF 631
[54] = system: 786-0
[55] = system: MCF7
[56] = system: HOP-18
[57] = system: SK-MEL-2
[58] = system: IGROV-1
[59] = system: HCT-15
[60] = system: SNB-78
[61] = system: SW-620
[62] = system: ACHN
[63] = system: UACC-62
[64] = system: MDA-N
[65] = system: CCRF-CEM
[66] = system: SK-MEL-5
[67] = system: NCI/ADR-RES
[68] = system: SF-295
[69] = system: DMS-114

SMILES: COc1ccc(-c2oc3cc(O)c(OC)c(O)c3c(=O)c2O)cc1 [BETULETOL]
- GI50 [1]: 8.32 µM (inactive)
- GI50 [2]: 9.75 µM (inactive)
- GI50 [3]: 12.9 µM (inactive)
- GI50 [4]: 5.19 µM (inactive)
- GI50 [5]: 10.5 µM (inactive)
- GI50 [6]: 12 µM (inactive)
- GI50 [7]: 1.74 µM (inactive)
- GI50 [8]: 17.9 µM (inactive)
- GI50 [9]: 20.2 µM (inactive)
- GI50 [10]: 4.47 µM (inactive)
- GI50 [11]: 8.75 µM (inactive)
- GI50 [12]: 7.11 µM (inactive)
- GI50 [13]: 6.46 µM (inactive)
- GI50 [14]: 10.9 µM (inactive)
- GI50 [15]: 23.7 µM (inactive)
- GI50 [16]: 39.7 µM (inactive)
- GI50 [17]: 15.2 µM (inactive)
- GI50 [18]: 5.62 µM (inactive)
- GI50 [19]: 1.85 µM (inactive)
- GI50 [20]: 6.19 µM (inactive)
- GI50 [21]: 10.4 µM (inactive)
- GI50 [22]: 2.36 µM (inactive)
- GI50 [23]: 12 µM (inactive)
- GI50 [24]: 6.7 µM (inactive)
- GI50 [25]: 17.8 µM (inactive)
- GI50 [26]: 13.4 µM (inactive)
- GI50 [27]: 19.5 µM (inactive)
- GI50 [28]: 9.95 µM (inactive)
- GI50 [29]: 4.73 µM (inactive)
- GI50 [30]: 18.9 µM (inactive)
- GI50 [31]: 30.2 µM (inactive)
- GI50 [32]: 8.36 µM (inactive)
- GI50 [33]: 2.9 µM (inactive)
- GI50 [34]: 9.55 µM (inactive)
- GI50 [35]: 6.03 µM (inactive)
- GI50 [36]: 19.3 µM (inactive)
- GI50 [37]: 26.9 µM (inactive)
- GI50 [38]: 20.1 µM (inactive)
- GI50 [39]: 10.1 µM (inactive)
- GI50 [40]: 10.2 µM (inactive)
- GI50 [41]: 6.1 µM (inactive)
- GI50 [42]: 17.1 µM (inactive)
- GI50 [43]: 54 µM (inactive)
- GI50 [44]: 5.6 µM (inactive)
- GI50 [45]: 9.38 µM (inactive)
- GI50 [46]: 9.68 µM (inactive)
- GI50 [47]: 3.33 µM (inactive)
- GI50 [48]: 3.08 µM (inactive)
- GI50 [49]: 8.61 µM (inactive)
- GI50 [50]: 38.8 µM (inactive)
- GI50 [51]: 6.22 µM (inactive)
- GI50 [52]: 24.9 µM (inactive)
- GI50 [53]: 21.5 µM (inactive)
- GI50 [54]: 6.08 µM (inactive)
- GI50 [55]: 4.44 µM (inactive)
- GI50 [56]: 67.3 µM (inactive)
- GI50 [57]: > 51.8 µM (inactive)
- GI50 [58]: 15.1 µM (inactive)
- GI50 [59]: 4.84 µM
- GI50 [60]: 81.3 µM (inactive)
- GI50 [61]: 20.5 µM (inactive)
- GI50 [62]: 2.77 µM (inactive)
- GI50 [63]: 10.3 µM (inactive)
- GI50 [64]: 13.7 µM (inactive)
- GI50 [65]: 5.16 µM (inactive)
- GI50 [66]: 6.14 µM (inactive)
- GI50 [67]: 6.73 µM (inactive)
- GI50 [68]: 6.08 µM (inactive)

SMILES: c1cc(-c2cn3ccsc3n2)ccn1
- GI50 [1]: > 100 µM (inactive)
- GI50 [4]: > 100 µM (inactive)
- GI50 [5]: > 100 µM (inactive)
- GI50 [7]: 99.3 µM (inactive)
- GI50 [9]: > 100 µM (inactive)
- GI50 [10]: > 100 µM (inactive)
- GI50 [11]: > 75.5 µM (inactive)
- GI50 [12]: > 100 µM (inactive)
- GI50 [13]: > 100 µM (inactive)
- GI50 [14]: > 47.2 µM (inactive)
- GI50 [15]: > 61.9 µM (inactive)
- GI50 [16]: > 31.6 µM (inactive)
- GI50 [18]: > 100 µM (inactive)
- GI50 [19]: > 100 µM (inactive)
- GI50 [20]: > 61 µM (inactive)
- GI50 [21]: > 86.9 µM (inactive)
- GI50 [23]: > 100 µM (inactive)
- GI50 [24]: > 100 µM (inactive)
- GI50 [25]: > 100 µM (inactive)
- GI50 [26]: > 100 µM (inactive)
- GI50 [27]: > 100 µM (inactive)
- GI50 [28]: > 45.1 µM (inactive)
- GI50 [29]: > 100 µM (inactive)
- GI50 [30]: > 41.8 µM (inactive)
- GI50 [31]: > 65.8 µM (inactive)
- GI50 [33]: > 44.9 µM (inactive)
- GI50 [35]: > 91 µM (inactive)
- GI50 [36]: > 100 µM (inactive)
- GI50 [37]: > 100 µM (inactive)
- GI50 [69]: > 66.5 µM (inactive)
- GI50 [38]: > 100 µM (inactive)
- GI50 [39]: > 100 µM (inactive)
- GI50 [40]: > 100 µM (inactive)
- GI50 [41]: > 54.5 µM (inactive)
- GI50 [42]: > 100 µM (inactive)
- GI50 [43]: > 100 µM (inactive)
- GI50 [44]: > 100 µM (inactive)
- GI50 [45]: > 100 µM (inactive)
- GI50 [46]: 32.7 µM (inactive)
- GI50 [47]: > 100 µM (inactive)
- GI50 [48]: 65.9 µM (inactive)
- GI50 [49]: > 100 µM (inactive)
- GI50 [50]: > 60.5 µM (inactive)
- GI50 [51]: > 100 µM (inactive)
- GI50 [52]: > 100 µM (inactive)
- GI50 [53]: > 100 µM (inactive)
- GI50 [54]: 38.4 µM (inactive)
- GI50 [56]: > 100 µM (inactive)
- GI50 [57]: > 100 µM (inactive)
- GI50 [58]: > 100 µM (inactive)
- GI50 [59]: > 44.2 µM
- GI50 [60]: > 100 µM (inactive)
- GI50 [61]: > 43.1 µM (inactive)
- GI50 [62]: > 100 µM (inactive)
- GI50 [63]: > 100 µM (inactive)
- GI50 [65]: > 41.8 µM (inactive)
- GI50 [66]: > 100 µM (inactive)
- GI50 [68]: > 100 µM (inactive)
